Reference: US10570152B2, “Antibacterial therapeutics and prophylactics” (VYOME BIOSCIENCES PVT. LTD., priority 2015, dated 2020)
Converted amounts (≈) assume the structure as drawn.

Assays:
[1] = system: S. epidermidis ATCC 35984 biofilm; test: Biofilm disruption assay (MTT) with compounds and compound loaded beads; format: cell-based; conditions: Staphylococcus epidermidis, ATCC35984, read-out: Concentration of compounds (mg/ml) for 50% biofilm disruption
Procedure: S. epidermidis ATCC 35984 was grown in Brain Heart Infusion Agar (BHIA) at 37° C. for 24 h. The loop full of bacterial culture was suspended in sterile water and matched the turbidity against 0.5 McFarland Standard (approximately 1.5×10^8), 100 μl of culture suspension was added into each well of the 96 well plate and plates were incubated at 37° C. for 48 h for biofilm formation. The biofilm formed in each well was washed twice with sterile water to remove the planktonic cells. Then biofilm was treated with 100 yl of BHI broth suspended with various concentrations of DART molecules, followed by incubation of the plates at 37° C. for 24 h. Subsequently the biofilm in the wells were stained with MTT reagent and the plates were incubated at 37° C. for 2 h. The precipitate formed in the wells was dissolved in 100 μl of dimethyl sulfoxide (DMSO) and the absorbance was measured at 600 nm in multi well plate reader to determine the minimum biofilm inhibitory concentration (MBIC). The MBIC was calculated by subtracting the absorbance value of each drug treated sample from that of 48 h growth control.

[2] = Drug release assay of compound impregnated Smart set HV; format: physicochemical; conditions: Smart set HV loaded; PBS buffer (pH 6.8):acetonitrile (9:1), 32° C., 7 days
Procedure: The drug release study with compound 2 and compound 10 were conducted in sample vial containing 1.5 ml of dissolution media i.e., PBS buffer (pH 6.8):acetonitrile (9:1). The sample was kept in incubator rotator at 32° C. at 40 rpm. The release medium was withdrawn at specified interval of time (2 hr, 4 hr, 6 hr, day 1, day 2, day 3, day 4, day 5, day 6, day 7 and replaced by fresh 1.5 ml dissolution medium each time. All the samples were kept at −20° C. till the analysis is done. The measurement of drug release was done by HPLC.

## Cc1ncc([N+](=O)[O-])n1CCN1CCN(c2cc3c(cc2F)c(=O)c(C(=O)O)c2n3C(C)S2)CC1 (centres unmarked) [Compound 2, 6-Fluoro-1-methyl-7-(4-(2-(2-methyl-5-nitro-1H-imidazol-1-yl)ethyl)piperazin-1-yl)-4-oxo-1H,4H-[1,3]thiazeto[3,2-a]quinoline-3-carboxylic acid]
[1]
  EC50: 0.5 to 1 mg/mL (≈ 995 to 1990 µM)
[2]
  drug release from bone cement in words: sustained release of active over a period of 7 days
